Data as given in the Deep4Chem optical property database.

Assay: solvent given as SMILES

Structure (SMILES): COC(=O)C[C@H](NC(=O)[C@H](Cc1c[nH]c2ccccc12)NC(=O)OC(C)(C)C)C(=O)OC
- absorption maximum (in CC#N): 280 nm
- absorption maximum (in CCOC(C)=O): 280 nm
- absorption maximum (in CO): 280 nm

Structure (SMILES): CCCCCCC(CCCCCC)N1C(=O)c2cccc3c(-c4cc(OC)c(OC)c(OC)c4)ccc(c23)C1=O
- absorption maximum (in CCCCCC): 354.8 nm
- absorption maximum (in CCCCCCCCCCCCCC): 357 nm
- absorption maximum (in CCCCCCCCCCCO): 362.6 nm
- absorption maximum (in CCCCO): 361.4 nm
- absorption maximum (in CN(C)C=O): 365.6 nm
- absorption maximum (in Cc1ccccc1): 360.8 nm
- absorption maximum (in ClC(Cl)Cl): 362.2 nm

Structure (SMILES): CC(C)(C)NC(=O)c1ccc(Br)c2ccc3c4ccc(F)cc4c4cc(F)ccc4c3c12
- absorption maximum (in ClCCl): 338 nm

Structure (SMILES): CSc1sc(C(C)=O)c2nn[nH]c(=O)c12
- absorption maximum (in C1CCOC1): 392.5 nm
- absorption maximum (in CC#N): 393 nm
- absorption maximum (in CCO): 397 nm
- absorption maximum (in CN(C)C=O): 404 nm
- absorption maximum (in CO): 396 nm
- absorption maximum (in CS(C)=O): 400.5 nm

Structure (SMILES): CC(=O)OC[C@H]1O[C@@H](OCC#Cc2ccc(C3=C4C(C)=CC(/C=C/c5ccc(N(C)C)cc5)=[N+]4[B-](F)(F)n4c(/C=C/c5ccc(N(C)C)cc5)cc(C)c43)cc2)[C@H](OC(C)=O)C(OC(C)=O)[C@@H]1OC(C)=O (some centres not stated)
- absorption maximum (in CC#N): 701 nm

Structure (SMILES): CCOC(=O)c1c2c3c(ccc(C)c3c3cc4ccccc4cc13)N(C)C2=O
- absorption maximum (in CC#N): 404 nm

Structure (SMILES): O=[N+]([O-])c1ccc(O)cc1
- absorption maximum (in CO): 309 nm
- absorption maximum (in O): 401 nm

Structure (SMILES): CCCCCCN1C(=O)c2cccc3c(-c4cc5ccccc5s4)ccc(c23)C1=O
- absorption maximum (in ClC(Cl)Cl): 378 nm

Structure (SMILES): CN1/C(=C/C=C(/C=C/C2=[N+](C)c3ccccc3C2(C)C)c2cc(F)cc(F)c2)C(C)(C)c2ccccc21
- absorption maximum (in CCO): 636 nm
- absorption maximum (in CO): 633 nm
- absorption maximum (in CS(C)=O): 644 nm
- absorption maximum (in O): 631 nm

Structure (SMILES): Cc1cc(C)c(B(c2ccc(-n3c4ccccc4c4ccccc43)cc2)c2c(C)cc(C)cc2C)c(C)c1
- absorption maximum (in Cc1ccccc1): 360 nm

Structure (SMILES): CC1(C)c2ccccc2-c2sc3ccccc3c21
- absorption maximum (in ClCCl): 330 nm

Structure (SMILES): COc1ccc(-c2c3cc4ccccc4cc3c(-c3ccc(OC)cc3)c3cc4ccccc4cc23)cc1
- absorption maximum (in ClCCl): 602 nm

Structure (SMILES): CCCCCCCCOc1ccc(C#Cc2ccc(C#Cc3ccc(OCCCCCCCC)c(OCCCCCCCC)c3)c3nc4c5ccccc5c5ccccc5c4nc23)cc1OCCCCCCCC
- absorption maximum (in C1CCOC1): 461 nm
- absorption maximum (in Cc1ccccc1): 461 nm
- absorption maximum (in ClCCl): 461 nm

Structure (SMILES): CC1=CC(/C=C/c2ccc(OCCCN=[N+]=[N-])cc2)=[N+]2C1=C(c1ccc(N(C)C)cc1)c1c(C)cc(C)n1[B-]2(F)F
- absorption maximum (in CO): 568 nm

Structure (SMILES): F[B-]1(F)n2c(Cl)c(Cl)c(Br)c2C(Oc2ccccc2)=C2C(Br)=C(Cl)C(Cl)=[N+]21
- absorption maximum (in ClCCl): 532 nm

Structure (SMILES): CCOC(=O)c1cc(C(=O)OCC)c2c(C)ccc(O)c2n1
- absorption maximum (in CCO): 369 nm

Structure (SMILES): CCCCCCOc1ccc(N(c2ccc(OCCCCCC)cc2)c2ccc(-c3sc(-c4ccc(N(c5ccc(OCCCCCC)cc5)c5ccc(OCCCCCC)cc5)cc4)c4nc(CC)c(CC)nc34)cc2)cc1
- absorption maximum (in ClCCl): 532 nm

Structure (SMILES): N#Cc1cc(-n2c3ccccc3c3ccccc32)nc(-n2c3ccccc3c3ccccc32)n1
- absorption maximum (in Cc1ccccc1): 342 nm

Structure (SMILES): COCCOCCOCCOc1ccc(/C=C/C2=[N+]3C(=C(c4cc(OC)cc(OC)c4)c4c(C)c(I)c(/C=C/c5ccc(OCCOCCOCCOC)cc5)n4[B-]3(F)F)C(C)=C2I)cc1
- absorption maximum (in C1CCOC1): 664 nm
- absorption maximum (in CS(C)=O): 666 nm
- absorption maximum (in ClCCl): 664 nm

Structure (SMILES): F[B-]1(F)N2C=CN=CC2=[N+]2[N+]1=Cc1c(-c3ccccc3)cc(-c3cccs3)n1[B-]2(F)F
- absorption maximum (in ClCCl): 533 nm

Structure (SMILES): Nc1ccc2c(c1)NC(=O)CC(=O)N2
- absorption maximum (in CS(C)=O): 318 nm

Structure (SMILES): C(=C\c1cc[n+]2ccc(/C=C/c3cc[nH]c3)cc2c1)/c1cc[nH]c1
- absorption maximum (in CO): 457 nm

Structure (SMILES): Brc1cc2nc3cc4c5c(cccc5c3nc2cc1Br)C(c1ccccc1)=C(c1ccccc1)O4
- absorption maximum (in ClCCl): 518 nm

Structure (SMILES): O=c1oc2ccccc2cc1-c1cccc(-c2cc3ccccc3oc2=O)c1
- absorption maximum (in ClC(Cl)Cl): 330 nm

Structure (SMILES): C(=C\c1cccnc1)/c1ccc(Nc2ccccc2)cc1
- absorption maximum (in CC#N): 358 nm
- absorption maximum (in CCCCCC): 352 nm

Structure (SMILES): CCCCCCc1ccc(-c2ccc(-c3cc(-c4ccc(-c5ccc(CCCCCC)s5)s4)c4ccc5c(-c6ccc(-c7ccc(CCCCCC)s7)s6)cc(-c6ccc(-c7ccc(CCCCCC)s7)s6)c6ccc3c4c65)s2)s1
- absorption maximum (in ClC(Cl)Cl): 451 nm

Structure (SMILES): COc1ccc2cc(-c3ccc(C(F)(F)F)cc3)oc(=O)c2c1
- absorption maximum (in CCCCCC): 326 nm
- absorption maximum (in CCCCCCCCO): 327 nm
- absorption maximum (in CCCCO): 326 nm
- absorption maximum (in CCCO): 325 nm
- absorption maximum (in CCO): 324 nm
- absorption maximum (in CCOC(C)=O): 326 nm
- absorption maximum (in CN(C)C=O): 328 nm
- absorption maximum (in CO): 324 nm
- absorption maximum (in ClC(Cl)Cl): 327 nm

Structure (SMILES): CCCCC1(c2ccccc2)Nc2c(-c3ccc(N(C)C)cc3)ccc(-c3ccc(N(C)C)cc3)c2N=C1c1ccccc1 (configuration not stated)
- absorption maximum (in ClC(Cl)Cl): 371 nm

Structure (SMILES): c1ccc(-c2nc(-c3ccc(N4c5ccccc5C(c5ccccc5)(c5ccccc5)c5ccccc54)cc3)cc(-c3ccccn3)n2)cc1
- absorption maximum (in Cc1ccccc1): 371.33 nm

Structure (SMILES): CN(C)c1ccc(C2=C(c3ccccc3)c3sc4ccccc4[n+]3[B-](F)(F)O2)cc1
- absorption maximum (in C1CCOC1): 446 nm

Structure (SMILES): CN(C)c1ccc2c(C(=O)NCc3ccccc3)cc(C(=O)[O-])nc2c1
- absorption maximum (in CCO): 403 nm

Structure (SMILES): c1ccc(-n2c(-c3ccc(-c4ccc5c(c4)C4(c6ccccc6-c6ccccc64)c4cc(-c6ccc(-c7nc8ccccc8n7-c7ccccc7)cc6)c6ccccc6c4-5)cc3)nc3ccccc32)cc1
- absorption maximum (in ClC(Cl)Cl): 359 nm
